Assay results reported in patent publication US11247965B2 (VenatoRx Pharmaceuticals, Inc., priority 2017, dated 2022).

How the values were obtained:
[1] = tested on: HBV replication in HepAD38 cells; assay: Anti-HBV activity in HepAD38 cells, extracellular HBV DNA by QPCR; format: cell-based, HBV (genotype D, serotype ayw); conditions: Hepatitis B virus, HePAD38, 168 h, read-out: Anti-HBV EC50, HepAD38 cells, extracellular HBV DNA by QPCR, 7 days of incubation
Description: The anti-HBV activity of the Capsid Assembly Modulators (CAMs) was evaluated in a cell based assay utilizing the human hepatoma cell line HepAD38 (Ladner, S K., et al., 1998). HepAD38 cells were derived from the parental line, HepG2, that were stably transfected with a construct containing an HBV genome (genotype D, serotype ayw) under the control of a tetracycline repressible CMV promoter. Upon removal of tetracycline, viral pre-genomic RNA (pgRNA) and mRNAs are expressed and infectious viral particles are assembled and secreted into the culture medium providing a reliable, robust system to measure multiple steps of the HBV life cycle. Disruption of capsid formation results in reduced levels of DNA-containing virus particles that are released into the culture supernatant. To quantify the effect of CAMs on HBV replication, we developed a sensitive QPCR-based assay that measures extracellular HBV DNA levels upon treatment of HepAD38 cells with various concentrations of test compounds.
HepAD38 cells were maintained in DMEM/F12 medium containing 10% FBS, 400 μg/mL G418 and 0.3 μg/mL tetracycline (tet+medium) to maintain repression of HBV replication. To evaluate each compound, HepAD38 cells were seeded into 24-well collagen coated culture plates (Corning BioCoat) at a density of 200,000 cells per well in 1 mL of tet+medium and allowed to adhere overnight at 37° C., 5% CO2 in a humidified incubator. The following day, test articles were subjected to half-logo serial dilutions, ranging from 30 μM to 10 nM, in 100% DMSO at 200× the desired final assay concentration. Tetracycline was removed from the cells by aspirating the tet+medium and washing the cells once with growth medium lacking tetracycline (tet-). Various concentrations of each compound were added to the appropriate wells (1:200 dilution) and the plates were returned to the incubator. Following 7 days of incubation, culture supernatants were harvested and HBV DNA levels were evaluated by QPCR and compared to the vehicle treated control wells (i.e. DMSO alone).
To quantify HBV DNA levels, cell culture supernatants were diluted 1:10 in sterile, nuclease-free water (Gibco). The diluted supernatants were subsequently added to a PCR master mix containing 1× Roche Light Cycler Master Mix, 0.5 μM forward primer, 0.5 μM reverse primer (Fwd:
0.2 μM Roche Universal Probe Library Probe 25. The volume was brought to 20 μL with nuclease-free water and amplification of the HBV target sequence was performed using a Roche LightCycler 480 QPCR instrument. PCR extended out to 45 cycles with each cycle consisting of a denaturation step at 95° C. for 10 sec., followed by an annealing step at 60° C. for 10 sec. and a brief extension step at 72° C. for 1 sec.
Extracellular HBV DNA levels, expressed in copies/mL, were determined by comparison to a standard curve (10^2-10^9 copies/mL) using the Roche LightCycler analysis software. These values were subsequently converted to percent inhibition of HBV replication by dividing the HBV DNA levels in the experimental samples with those obtained from the vehicle control (˜1-2×10^5 copies/mL). Potency, expressed as an EC50 (the effective concentration required to inhibit […] of HBV replication), was calculated from the dose-response curve using a 4-parameter non-linear regression analysis (GraphPad Prism). The nucleoside analog inhibitor entecavir was used as a positive control to validate each assay run. The EC50 value of entecavir in the HepAD38 assay was 0.5 nM, as previously reported in the literature.

[2] = In vitro cytotoxicity, MTT cell viability assay in HepG2 cells; format: cell-based; conditions: human, Cytotoxicity CC50
Description: To evaluate antiviral selectivity, the cytotoxic activity of each compound was determined using a standard cell viability assay performed on the parental HepG2 cell line. Cell viability was determined by measuring the conversion of 3-(4,5-dimethylthiazol-2-yl)-2,5-diphenyltetrazolium bromide (MTT) to the insoluble formazan salt crystal that occurs in live cells. Briefly, HepG2 cells were seeded in 96-well plates at a density of 20,000 cells per well in EMEM+10% FBS (complete growth medium) and allowed to adhere overnight in a 37° C., 5% CO2 humidified incubator. The next day, test agents were prepared by performing 8 half-log10 serial dilutions in 100% DMSO at 200× the final desired concentration in the assay. Compounds were tested over a range of concentrations from 30 μM to 1.0 nM in the assay. HepG2 cells were incubated in the presence of various concentrations of CAMs for 7 days in a 37° C., 5% CO2 humidified incubator. At the completion of the 7-day incubation period, MTT reagent was added to each well and the mixture was incubated for an additional 3-4 hours. At the completion of the incubation period, all wells were aspirated to remove the culture medium. The formazan crystals were solubilized from the cell monolayers with 100% DMSO. Plates were briefly mixed on an orbital shaker and absorbance was measured at 492 nm using a Perkin-Elmer EnVision multi-label plate reader. All absorbance values were converted to a percentage of the signal obtained from the vehicle treated controls. Absorbance values at 492 nm are directly proportional to the number of viable cells present in the sample. A CC50 value (cytotoxic concentration that results in loss of 50% cell viability) was calculated from the dose-response curve by 4-parameter, non-linear regression analysis using the GraphPad Prism software. The positive control compound, staurosporine, reduced the viability of HepG2 cells in a dose-dependent manner (CC50=100 nM).

`O=C(Nc1ccc(F)c(F)c1)c1ccc(F)c(C(F)(F)C(=O)N(CCO)CCO)c1` [Example 16, 3-(2-(bis(2-hydroxyethyl)amino)-1,1-difluoro-2-oxoethyl)-N-(3,4-difluorophenyl)-4-fluorobenzamide] showed an EC50 [1] of 5 to 30 µM and a CC50 at 7 days [2] of over 30 µM.
In the case of `Cc1cc(NC(=O)c2ccc(Cl)c(C(F)(F)C(=O)N3CCC(O)CC3)c2)ccc1F` [Example 17, 4-chloro-3-(1,1-difluoro-2-(4-hydroxypiperidin-1-yl)-2-oxoethyl)-N-(4-fluoro-3-methylphenyl)benzamide], the EC50 [1] is reported as under 5 µM and the CC50 at 7 days [2] is reported as 5 to 30 µM.
`CC(C)(C)NC(=O)C(F)(F)c1cc(C(=O)Nc2ccc(F)c(F)c2)ccc1F` [Example 18, 3-(2-(tert-butylamino)-1,1-difluoro-2-oxoethyl)-N-(3,4-difluorophenyl)-4-fluorobenzamide] showed an EC50 [1] of 5 to 30 µM and a CC50 at 7 days [2] of 5 to 30 µM.
Compound `CCC(C)(C)NC(=O)C(F)(F)c1cc(C(=O)Nc2ccc(F)c(F)c2)ccc1F` [Example 19, 3-(1,1-difluoro-2-oxo-2-(tert-pentylamino)ethyl)-N-(3,4-difluorophenyl)-4-fluorobenzamide] has an EC50 [1] of under 5 µM and a CC50 at 7 days [2] of 5 to 30 µM.
`O=C(Nc1ccc(F)c(F)c1)c1ccc(F)c(C(F)(F)C(=O)NC2CCCC2)c1` [Example 20, 3-(2-(cyclopentylamino)-1,1-difluoro-2-oxoethyl)-N-(3,4-difluorophenyl)-4-fluorobenzamide] showed an EC50 [1] of 5 to 30 µM and a CC50 at 7 days [2] of 5 to 30 µM.
For `COc1ccccc1NC(=O)C(F)(F)c1cc(C(=O)Nc2ccc(F)c(F)c2)ccc1F` [Example 21, 3-(1,1-difluoro-2-((2-methoxyphenyl)amino)-2-oxoethyl)-N-(3,4-difluorophenyl)-4-fluorobenzamide], the EC50 [1] was 5 to 30 µM and the CC50 at 7 days [2] was 5 to 30 µM.
With `O=C(Nc1ccc(F)c(F)c1)c1ccc(F)c(C(F)(F)C(=O)Nc2ccc(F)cn2)c1` [Example 22, 3-(1,1-difluoro-2-((5-fluoropyridin-2-yl)amino)-2-oxoethyl)-N-(3,4-difluorophenyl)-4-fluorobenzamide] the EC50 [1] was 5 to 30 µM and the CC50 at 7 days [2] was over 30 µM.
With `Cc1cc(NC(=O)c2ccc(Cl)c(C(F)(F)C(=O)NC(C)C)c2)ccc1F` [Example 23, 4-chloro-3-(1,1-difluoro-2-(isopropylamino)-2-oxoethyl)-N-(4-fluoro-3-methylphenyl)benzamide] the EC50 [1] was 5 to 30 µM and the CC50 at 7 days [2] was 5 to 30 µM.
`CC(C)(CO)NC(=O)C(F)(F)c1cc(C(=O)Nc2ccc(F)c(F)c2)ccc1F` [Example 24, 3-(1,1-difluoro-2-((1-hydroxy-2-methylpropan-2-yl)amino)-2-oxoethyl)-N-(3,4-difluorophenyl)-4-fluorobenzamide] showed an EC50 [1] of 5 to 30 µM and a CC50 at 7 days [2] of 5 to 30 µM.
In the case of `O=C(Nc1ccc(F)c(F)c1)c1ccc(F)c(C(F)(F)C(=O)N2CCCCC(O)C2)c1` (stereo not drawn) [Example 25, 3-(1,1-difluoro-2-(3-hydroxyazepan-1-yl)-2-oxoethyl)-N-(3,4-difluorophenyl)-4-fluorobenzamide], the EC50 [1] is reported as under 5 µM and the CC50 at 7 days [2] is reported as 5 to 30 µM.
`O=C(Nc1ccc(F)c(F)c1)c1ccc(F)c(C(F)(F)C(=O)NC2CCC(O)CC2)c1` (stereo not drawn) [Example 26, 3-(1,1-difluoro-2-(((1r,4r)-4-hydroxycyclohexyl)amino)-2-oxoethyl)-N-(3,4-difluorophenyl)-4-fluorobenzamide] showed an EC50 [1] of under 5 µM and a CC50 at 7 days [2] of 5 to 30 µM.
With `Cc1cc(NC(=O)c2ccc(F)c(C(F)(F)C(=O)NC(C)(C)CO)c2)ccc1F` [Example 28, 3-(1,1-difluoro-2-((1-hydroxy-2-methylpropan-2-yl)amino)-2-oxoethyl)-4-fluoro-N-(4-fluoro-3-methylphenyl)benzamide] the EC50 [1] was 5 to 30 µM and the CC50 at 7 days [2] was over 30 µM.
`Cc1cc(NC(=O)c2ccc(F)c(C(F)(F)C(=O)N3CCC(O)CC3)c2)ccc1F` [Example 29, 3-(1,1-difluoro-2-(4-hydroxypiperidin-1-yl)-2-oxoethyl)-4-fluoro-N-(4-fluoro-3-methylphenyl)benzamide] gave an EC50 [1] of under 5 µM and a CC50 at 7 days [2] of over 30 µM.
For `Cc1cc(NC(=O)c2csc(C(F)(F)C(=O)N3CCC(O)CC3)n2)ccc1F` [Example 30, 2-(1,1-difluoro-2-(4-hydroxypiperidin-1-yl)-2-oxoethyl)-N-(4-fluoro-3-methylphenyl)thiazole-4-carboxamide], the EC50 [1] was 5 to 30 µM and the CC50 at 7 days [2] was 5 to 30 µM.
In the case of `CC(C)(CO)NC(=O)C(F)c1cc(C(=O)Nc2ccc(F)c(F)c2)ccc1F` (stereo not drawn) [Example 31, N-(3,4-difluorophenyl)-4-fluoro-3-(1-fluoro-2-((1-hydroxy-2-methylpropan-2-yl)amino)-2-oxoethyl)benzamide], the EC50 [1] is reported as 5 to 30 µM and the CC50 at 7 days [2] is reported as 5 to 30 µM.
Compound `O=C(Nc1ccc(F)c(F)c1)c1ccc(F)c(C(F)C(=O)N2CCC(O)CC2)c1` (stereo not drawn) [Example 32, N-(3,4-difluorophenyl)-4-fluoro-3-(1-fluoro-2-(4-hydroxypiperidin-1-yl)-2-oxoethyl)benzamide] has an EC50 [1] of under 5 µM and a CC50 at 7 days [2] of 5 to 30 µM.
Compound `N#Cc1cc(NC(=O)c2ccc(Cl)c(C(F)(F)C(=O)N3CCC(O)CC3)c2)ccc1F` [Example 33, 4-chloro-N-(3-cyano-4-fluorophenyl)-3-(1,1-difluoro-2-(4-hydroxypiperidin-1-yl)-2-oxoethyl)benzamide] has an EC50 [1] of under 5 µM and a CC50 at 7 days [2] of over 30 µM.
Compound `O=C(Nc1cc(F)c(F)c(F)c1)c1ccc(Cl)c(C(F)(F)C(=O)N2CCC(O)CC2)c1` [Example 34, 4-chloro-3-(1,1-difluoro-2-(4-hydroxypiperidin-1-yl)-2-oxoethyl)-N-(3,4,5-trifluorophenyl)benzamide] has an EC50 [1] of under 5 µM and a CC50 at 7 days [2] of 5 to 30 µM.
`O=C(Nc1ccc(F)c(Cl)c1)c1ccc(Cl)c(C(F)(F)C(=O)N2CCC(O)CC2)c1` [Example 35, 4-chloro-N-(3-chloro-4-fluorophenyl)-3-(1,1-difluoro-2-(4-hydroxypiperidin-1-yl)-2-oxoethyl)benzamide] showed an EC50 [1] of under 5 µM and a CC50 at 7 days [2] of 5 to 30 µM.
`O=C(Nc1ccc(F)cc1)c1ccc(Cl)c(C(F)(F)C(=O)N2CCC(O)CC2)c1` [Example 36, 4-chloro-3-(1,1-difluoro-2-(4-hydroxypiperidin-1-yl)-2-oxoethyl)-N-(4-fluorophenyl)benzamide] gave an EC50 [1] of under 5 µM and a CC50 at 7 days [2] of over 30 µM.
With `O=C(Nc1ccc(Cl)cc1F)c1ccc(Cl)c(C(F)(F)C(=O)N2CCC(O)CC2)c1` [Example 37, 4-chloro-N-(4-chloro-2-fluorophenyl)-3-(1,1-difluoro-2-(4-hydroxypiperidin-1-yl)-2-oxoethyl)benzamide] the EC50 [1] was over 30 µM and the CC50 at 7 days [2] was over 30 µM.
